≈ marks a conversion by molar mass, not a printed value.
Assays:
Assay type in all cases: cell-based
[1] = test system: HeLa/bcl-2 cells; experiment: Anti-Fas antibody-dependent apoptosis inducing activity for HeLa/bcl-2 cells; settings: Drug concentration: 5 μM, added simultaneously with anti-Fas monoclonal antibody (CH11, 10 ng); 6 hours; Anti-Fas antibody = 100
Description: In HeLa/bcl-2 cells into which the bcl-2 gene is introduced, apoptosis is suppressed by the bcl-2 gene. For this reason, they acquire resistance to apoptosis induced by various anticancer agents or anti-Fas antibodies. Test compounds were examined in their eliminating effect on the apoptosis resistance of HeLa/bcl-2 by simultaneously adding an anti-Fas antibody and each test compound to HeLa/bcl-2 cells and detecting enzymatic activity of caspase that was activated in the process of apoptosis induction as described below. HeLa/bcl-2 cells in Medium A were placed in each well of a 96-well microtiter plate in an amount of 3×10^4 cells. The plate was incubated in a carbon dioxide gas incubator at 37° C. for 12 hours, then each test compound appropriately diluted with Medium A (10 μl) and an anti-Fas monoclonal antibody (CH11, 10 ng) were simultaneously added to each well, and the plate was further incubated in a carbon dioxide gas incubator at 37° C. for 6 hours. After the culture supernatant was removed, the cells were lysed, and caspase activity was measured in the same manner as in Test Example 1. The enzymatic activity of caspase, which was not increased by an anti-Fas antibody alone, was increased by the treatment with the anti-Fas antibody together with the test compound.

[2] = test system: HeLa/bcl-2 cells; experiment: Apoptosis inducing activity (caspase activation, Ac-DEVD-AMC) for HeLa/bcl-2 cells; settings: Drug concentration: 5 μM; 6 hours; No drug = 100
Procedure: (§1) Apoptosis inducing activity of the medicaments of the present invention was determined by measuring enzymatic activity of caspase activated in the process of apoptosis induction as described below,. HeLa cells or HeLa cells into which the bcl-2 gene was introduced (HeLa/bcl-2 cells) contained in DME medium containing 10% fetal calf serum (NISSUI PHARMACEUTICAL CO., LTD., referred to as “Medium A” hereinafter in the example) were placed in each well of 96-well microtiter plates in an amount of 3×10^4 cell. The cells on the plates were cultured in a carbon dioxide gas incubator at 37° C. for 12 hours, then a test compound appropriately diluted with Medium A was added to each well in an amount of 10 μl, and the cells were further cultured in a carbon dioxide gas incubator at 37° C. for 6 hours. After the culture supernatant was removed, the cells were lysed, and to the cell lysate was added a fluorescent substrate of caspase, Ac-DEVD-AMC (Peptide Laboratory). Then, the caspase activity was determined by measuring AMC (7-amino-4-methylcoumarin) released as a result of degradation of Ac-DEVD-AMC by caspase remained in the cell lysate through measurement of fluorescence intensity at 460 nm.

[3] = test system: HeLa/bcl-2 cells; experiment: Cytotoxic activity for HeLa/bcl-2 cells (XTT staining); settings: 24 hours, read-out: Growth Inhibition (IC50), HeLa/bcl-2 cell
Procedure: HeLa/bcl-2 cells in Medium A were placed in each well of a 96-well microtiter plate in an amount of 3×10^4 cells. The plate was incubated in a carbon dioxide gas incubator at 37° C. for 12 hours, then 10 μl of each test compound appropriately diluted with Medium A was added to each well, and the incubation was further continued in a carbon dioxide gas incubator at 37° C.

[4] = test system: Enterococcus hirae ATCC10541; experiment: Antibacterial activity, agar dilution method; parameters: key: —: Inactive; settings: pH 7
Procedure: (§2) Antibacterial activity was determined by the agar dilution method using a medium prepared by dissolving 3 g of Bacto trypton (Difco), 3 g of meat extract, 1 g of yeast extract, 1 g of glucose, and 16 g of agar in 1 L of water (pH 7). The antibacterial activities of typical compounds are shown in Table 6 as minimum growth inhibitory concentrations (MIC)

[5] = test system: Bacillus Subtilis ATCC107O7; experiment: Antibacterial activity, agar dilution method; parameters: key: —: Inactive; settings: pH 7
Procedure: as §2

[6] = test system: Staphylococcus aureus ATCC6538P; experiment: Antibacterial activity, agar dilution method; parameters: key: —: Inactive; settings: pH 7
Procedure: as §2

[7] = test system: HeLa cells; experiment: Apoptosis inducing activity (caspase activation, Ac-DEVD-AMC) for HeLa cells; settings: Drug concentration: 5 μM; 6 hours; No drug = 100
Procedure: as §1

[8] = test system: MCF-7 cell; experiment: Growth inhibition test for hormone-dependent human breast cancer MCF-7 cell strain (MTT); settings: 72 hours
Procedure: Cells were placed in each well of a 96-well microplate (Nunc, #167008) in an amount of 4000 cells per well, and the cells were pre-cultured in RPMI 1640 medium containing 5% fetal calf serum (FCS) for 24 hours in a 5% carbon dioxide gas incubator at 37° C. Then, a solution of each test compound in dimethyl sulfoxide (DMSO) prepared at a concentration of 10 mmol/L was serially diluted with the culture medium and added to each well (final volume: 100 μL/well). The cells were then further cultured for 72 hours in a 5% carbon dioxide gas incubator at 37° C. Five hours before completion of the culture, 4,5-dimethylthiazol-2-yl)-2,5-diphenyltetrazolium bromide (Sigma, abbreviated as “MTT” hereinafter) prepared at a concentration of 6 mg/mL with the culture medium was added in an amount of 10 μL per well. After the completion of culture, the medium was sucked, DMSO was added to each well in an amount of 150 μL per well and the mixture was vigorously stirred by using a plate mixer to completely dissolve the crystals of MTT-formazan. Then, difference of absorbance at 550 nm and 630 nm was determined by using a microplate reader (M-Spmax250, Wako Pure Chemicals). Inhibitory activity on the cell growth was calculated as 50% growth inhibitory concentration (IC50) based on a 4-parameter logistic calibration curve by using the formula of the analysis software (SOFTmax-J Ver.2.1) equipped with microplate reader.

Structure (SMILES) | Rate of Caspase Activation, HeLa/bcl-2 cell [1] [%] | Rate of Caspase Activation, HeLa/bcl-2 cell [2] [%] | IC50 [3] [nM] | MIC, EH [4] | MIC, BS [5] | MIC, SA [6] | Rate of Caspase Activation, HeLa cell [7] [%] | IC50 [8] [nM]
COC(=O)NC1C(C)OC(OC2C/C=C(\C)C3C=CC4C(OC5CC(OC6CCC(OC7CC(O)C(OC8CCC(O)C(C)O8)C(C)O7)C(C)O6)C(OC(C)=O)C(C)O5)C(C)CC(C)C4C3(C)C(=O)C3=C(O)C4(CC(C=O)=CC(O)C4/C=C/2C)OC3=O)CC1(C)[N+](=O)[O-] (stereo not shown) [Compound 1] | 964 |  |  |  |  |  |  | 
COC(=O)NC1C(C)OC(OC2C/C=C(\C)C3C=CC4C(O[Si](C)(C)C(C)(C)C)C(C)CC(C)C4C3(C)C(=O)C3=C(O)C4(CC(C=O)=CC(O)C4/C=C/2C)OC3=O)CC1(C)[N+](=O)[O-] (stereo not shown) [Compound 22] | 444 | 1078 | 1800 | 21 µg/mL (≈ 23.4 µM) | — | 42 µg/mL (≈ 46.8 µM) | 243 | 
COC(=O)NC1C(C)OC(OC2C/C=C(\C)C3C=CC4C(OC5CC(OC6CCC(OC7CC(O)C(O)C(C)O7)C(C)O6)C(OC(C)=O)C(C)O5)C(C)CC(C)C4C3(C)C(=O)C3=C(O)C4(CC(C=NO)=CC(O)C4/C=C/2C)OC3=O)CC1(C)[N+](=O)[O-] (stereo not shown) [Compound 24] |  |  |  | >92 µg/mL | 2.9 µg/mL (≈ 2.39 µM) | >92 µg/mL |  | 
COC(=O)NC1C(C)OC(OC2C/C=C(\C)C3C=CC4C(OC5CC(OC6CCC(O)C(C)O6)C(OC(C)=O)C(C)O5)C(C)CC(C)C4C3(C)C(=O)C3=C(O)C4(CC(C=NO)=CC(O)C4/C=C/2C)OC3=O)CC1(C)[N+](=O)[O-] (stereo not shown) [Compound 25] |  |  |  | — | >83 µg/mL | — |  | 
COC(=O)C=CC1=CC(O)C2/C=C(\C)C(OC3CC(C)([N+](=O)[O-])C(NC(=O)OC)C(C)O3)C/C=C(\C)C3C=CC4C(OC5CC(OC6CCC(OC7CC(O)C(OC8CCC(O)C(C)O8)C(C)O7)C(C)O6)C(OC(C)=O)C(C)O5)C(C)CC(C)C4C3(C)C(=O)C3=C(O)C2(C1)OC3=O (stereo not shown) [Compound 37] |  |  |  | — | 0.42 µg/mL (≈ 0.307 µM) | — |  | 5110
CCOC(OCC)C1=CC(O)C2/C=C(\C)C(OC3CC(C)([N+](=O)[O-])C(NC(=O)OC)C(C)O3)C/C=C(\C)C3C=CC4C(OC5CC(OC6CCC(OC7CC(O)C(OC8CCC(O)C(C)O8)C(C)O7)C(C)O6)C(OC(C)=O)C(C)O5)C(C)CC(C)C4C3(C)C(=O)C3=C(OC)C2(C1)OC3=O (stereo not shown) [Compound 38] |  |  |  | — | 12.5 µg/mL (≈ 8.92 µM) | — |  | 1220
COC(=O)NC1C(C)OC(OC2C/C=C(\C)C3C=CC4C(OC5CCCCO5)C(C)CC(C)C4C3(C)C(=O)C3=C(O)C4(CC(C=O)=CC(OC(C)=O)C4/C=C/2C)OC3=O)CC1(C)[N+](=O)[O-] (stereo not shown) [Compound 51] | 460 |  |  | 1.56 µg/mL (≈ 1.72 µM) | 6.25 µg/mL (≈ 6.88 µM) | 1.56 µg/mL (≈ 1.72 µM) |  | 1360
COC(=O)NC1C(C)OC(OC2CC=C(C)C3C=CC4C(OC5CC(OCc6ccccc6)C(OCc6ccccc6)C(COCc6ccccc6)O5)C(C)CC(C)C4C3(C)C(=O)C3=C(O)C4(CC(C=O)=CC(O)C4C=C2C)OC3=O)CC1(C)[N+](=O)[O-] (stereo not shown) [Compound 55] |  | 448 |  |  |  |  | 106 | 
COC(=O)NC1C(C)OC(OC2CC=C(C)C3C=CC4C(OC5CC(OCc6ccccc6)C(OCc6ccccc6)C(COCc6ccccc6)O5)C(C)CC(C)C4C3(C)C(=O)C3=C(O)C4(CC(C=O)=CC(OC(C)=O)C4C=C2C)OC3=O)CC1(C)[N+](=O)[O-] (stereo not shown) [Compound 56] |  |  |  |  |  |  |  | 630
COC(=O)NC1C(C)OC(OC2CC=C(C)C3C=CC4C(OC5CC(OC(C)=O)C(OC(C)=O)C(C)O5)C(C)CC(C)C4C3(C)C(=O)C3=C(O)C4(CC(C=O)=CC(OC(C)=O)C4C=C2C)OC3=O)CC1(C)[N+](=O)[O-] (stereo not shown) [Compound 59] |  |  |  | >66.7 µg/mL | 16.7 µg/mL (≈ 16.1 µM) | >66.7 µg/mL |  | 980
COC(=O)NC1C(C)OC(OC2CC=C(C)C3C=CC4C(OC5C=CC(O)C(C)O5)C(C)CC(C)C4C3(C)C(=O)C3=C(O)C4(CC(C=O)=CC(OC(C)=O)C4C=C2C)OC3=O)CC1(C)[N+](=O)[O-] (stereo not shown) [Compound 60] | 526 |  |  | — | >83.3 µg/mL | — |  | 
COC(=O)NC1C(C)OC(OC2CC=C(C)C3C=CC4C(OC5C=CC(OC(C)=O)C(C)O5)C(C)CC(C)C4C3(C)C(=O)C3=C(O)C4(CC(C=O)=CC(OC(C)=O)C4C=C2C)OC3=O)CC1(C)[N+](=O)[O-] (stereo not shown) [Compound 61] | 452 | 370 |  | — | 10.4 µg/mL (≈ 10.6 µM) | — | 213 | 1450
CC[Si](CC)(CC)OC1C=CC(OC2C(C)CC(C)C3C2C=CC2C(C)=CCC(OC4CC(C)([N+](=O)[O-])C(NC(=O)OC)C(C)O4)C(C)=CC4C(OC(C)=O)C=C(C=O)CC45OC(=O)C(=C5O)C(=O)C23C)OC1C (stereo not shown) [Compound 63] |  |  |  | — | >91.7 µg/mL | — |  | 720
COC(=O)NC1C(C)OC(OC2C/C=C(\C)C3C=CC4C(OC5CC(OC6CCC(OC7CC(OC(C)=O)C(O)C(C)O7)C(C)O6)C(OC(C)=O)C(C)O5)C(C)CC(C)C4C3(C)C(=O)C3=C(O)C4(CC(C=O)=CC(OC(C)=O)C4/C=C/2C)OC3=O)CC1(C)[N+](=O)[O-] (stereo not shown) [Compound 65] | 659 |  |  | — | 2.34 µg/mL (≈ 1.82 µM) | — |  | 520
COC(=O)NC1C(C)OC(OC2CC=C(C)C3C=CC4C(OC5(C)OC6OC(COC(C)=O)C(OC(C)=O)C(OC(C)=O)C6O5)C(C)CC(C)C4C3(C)C(=O)C3=C(O)C4(CC(C=O)=CC(OC(C)=O)C4C=C2C)OC3=O)CC1(C)[N+](=O)[O-] (stereo not shown) [Compound 66] |  |  |  | 60.0 µg/mL (≈ 51.9 µM) | >60.0 µg/mL | 60.0 µg/mL (≈ 51.9 µM) |  | 1400
